Assays:
U937 cells [1] = assay: F-cAMP efflux assay in U937 cells (screen and dose response); type: cell-based, human; details: screen at 10 μM, 51 hits retested in dose-response
Description: Cells were loaded with F-cAMP as described. Briefly, cells were resuspended in a hypertonic solution containing 10% polyethylene glycol 1000, 0.5 M sucrose, and 250 μM F-cAMP in cRPMI without FBS, incubated 10 min at room temperature, washed, and then resuspended in hypotonic solution (60% cRPMI, 40% sterile water) for 2 min at room temperature to complete F-cAMP loading. Cells were resuspended in cRPMI and equilibrated for 2 h under normal culture conditions.
Samples were evaluated using Accuri C6 or BD FACScan flow cytometers (Becton Dickinson (BD)).
Liquid handling was accomplished with a Biomek FX Multichannel system (Beckman-Coulter, Fullerton, CA, USA) and/or Biotek Multiflo system (Winooski, VT, USA). F-cAMP-loaded U937 cells (2000/well) were seeded into 384-well polypropylene plates (Greiner Bio-One 784201, Monroe, NC, USA). Cells were treated with compounds (10 μM final concentration) from the Prestwick Chemical Library (Illkirch, France) or […] Collection (MicroSource, Gaylordsville, CT, USA) delivered by pintool (V&P Scientific, San Diego, CA), at a final DMSO concentration of 1%. Plates were foil-sealed with AlumaSeal 384™ (Excel Scientific, Victorville, CA, USA), and incubated inverted overnight. Sample plates were analyzed by CyAn flow cytometers (Beckman-Coulter) configured with HyperCyt high-throughput auto-sampler systems (IntelliCyt, Albuquerque, NM, USA) using 488 nm excitation to assess FL-1 (530/40) MFI levels.
Data were analyzed with HyperView software (IntelliCyt) and time-gated to determine data from each well. Wells with ≥ 50 events were evaluated for FL-1 MFI values. Samples with MFI values ≥ 2 standard deviations above the plate mean negative control values were considered “hit” compounds.
To validate sample data and decrease the number of false-positive hits, compounds were assayed in a high-throughput dose response assay. Plates were set up as in the HTS, with the exception that the plate formats contained 10-well dose responses for each hit compound, at final concentrations ranging from 30 μM to 4 nM.
The dose response data were normalized for percent response based on sample FL-1 MFI values in comparison to untreated F-cAMP-loaded cells kept at 4°C overnight or at time = 0, and were fitted by GraphPad Prism 5 software (GraphPad Software, La Jolla, CA, USA) for sigmoidal dose response with constrained hill slope = 1.

Reh = assay: CellTiter-Glo cell viability; type: cell-based; details: Homo sapiens, overnight, n = 6, ± SEM, read-out: Compound EC50, Reh (cell viability)
Description: (§1) Cell viability was determined with the CellTiter-Glo® Luminescent Cell Viability Assay (Promega). Greiner 655083 had 100 μL cRPMI +/− 4×10^4 cells/well, and dose response curves of compounds ranged from 100 μM to 1.53 nM (1% DMSO). Wells with DMSO-only served as negative controls. Samples were incubated overnight, and the assay was completed according to the manufacturer's protocol. Plates were analyzed using a Victor^3V™ 1420 Multilabel Counter (Perkin Elmer).

RS4;11 = assay: CellTiter-Glo cell viability; type: cell-based; details: Homo sapiens, overnight, n = 6, ± SEM, read-out: Compound EC50, RS4;11 (cell viability)
Description: as §1

MHH Call 3 = assay: CellTiter-Glo cell viability; type: cell-based; details: Homo sapiens; overnight, n = 6, ± SEM; read-out: Compound EC50, MHH Call 3 (cell viability)
Description: as §1

Nalm 6 = assay: CellTiter-Glo cell viability; type: cell-based; details: Homo sapiens, overnight, n = 6, ± SEM, read-out: Compound EC50, Nalm 6 (cell viability)
Description: as §1

U937 cells [2] = assay: CellTiter-Glo cell viability; type: cell-based; details: Homo sapiens, U-937; overnight, n = 8, ± SEM, fit top = 100, bottom = 0, hill slope = −1; read-out: Compound EC50, U937 (cell viability)
Description: as §1

Sup B15 = assay: CellTiter-Glo cell viability; type: cell-based; details: Homo sapiens, overnight, n = 6, ± SEM, read-out: Compound EC50, Sup B15 (cell viability)
Description: as §1

697 = assay: CellTiter-Glo cell viability; type: cell-based; details: Homo sapiens; overnight, n = 6, ± SEM; read-out: Compound EC50, 697 (cell viability)
Description: as §1

[3] = set-up: method as in as printed in each cell; details: previously reported; cited from earlier work
[4] = tested on: CREB (Ser133) / ATF-1 (Ser63) phosphorylation; assay: Binding of anti-phospho-CREB/ATF-1 antibody in U937 cells (flow cytometry); type: cell-based, human; details: 1 hour, 20 μM
Description: Cells were suspended at 10^6 cells/ml in cRPMI and incubated for 1 hour at 37°C with 20 μM ICE compounds or forskolin (positive control). Negative control samples were treated with DMSO at equal volume. Cells were fixed with 20x volume of pre-warmed 1x solution BD Phosflow^TM Lyse/Fix Buffer (cat. 558049), incubated at 37°C for 10 minutes, permeabilized with BD Phosflow^TM Perm buffer II (cat. 558052), and incubated on ice for 30 minutes. Permeabilized cells were then washed and stained with BD Phosflow™ Alexa Fluor® 488 Mouse Anti-CREB (pS133) / ATF-1 (pS63) clone J151-21 (cat. 558435) according to the manufacturer's instructions.

[5] = set-up: method as in PMID 19505822; details: cited from earlier work
[6] = set-up: method as in PMID 19505822; details: cited from earlier work; remark: listed apart in the source

SMILES | Outcome of screen for inhibitors of cAMP efflux after dose-response validation (U937 cells [1]) | EC50 (Reh) [µM] | EC50 (RS4;11) [µM] | EC50 (MHH Call 3) [µM] | EC50 (Nalm 6) [µM] | EC50 (U937 cells [2]) [µM] | EC50 (Sup B15) [µM] | EC50 697 [µM] | Anticancer effects [3] | Potential mechanism(s) of action [3] | Binding of anti-CREB (pS133) / ATF-1 (pS63) specific antibodies [4] | water-solubility [5] | bioavailability [6]
C[C@H]1COC2=C1C(=O)C(=O)c1c2ccc2c1CCCC2(C)C [Cryptotanshinone] | potentially active | 105 ± 14.6 | 8.36 ± 5.84 | 126 ± 35.9 | 70.2 ± 29.9 | 11.8 ± 6.78 | 29.2 ± 7.58 | 67.1 ± 31.8 | ↓cyclin D1, Bcl-2 [47, 115, 116]; ↑p53, Chk1, Chk2 [120] | ↓mTOR, STAT3 signaling [116, 117]; ↓eIF-4E [47] |  |  | 
Oc1c(I)cc(Cl)c2cccnc12 [Clioquinol] | potentially active | 21.1 ± 4.61 | 64.4 ± 36.6 | 67.1 ± 22.9 | 24.8 ± 12.1 | 40.6 ± 10.8 | 15.4 ± 3.51 | 18.6 ± 7.74 | ↓cyclin D1 [110]; ↑p21, p27, p53 [106] | ↓NF-κB activation [108, 112]; ionophore/chelator activity [106, 108, 112]; proteasome inhibition [107, 109] | comparable to the adenylate cyclase stimulator forskolin positive control |  | 
O=C1C=C2C(=CCOC2O)O1 (centres unmarked) [Patulin] | potentially active | 0.33 ± 0.13 | 1.01 ± 0.22 | 0.53 ± 0.17 | 0.07 ± 0.01 | 3.1 ± 2.22 | 0.2 ± 0.12 | 0.13 ± 0.04 | ↓ERK1/2 activation [52, 133]; ↑UPR[52, 133]; ↑intracellular [Ca2+] [134] | ↑ROS, DNA damage [57, 59, 132, 133, 135]; ↓glutathione [133, 135] |  |  | 
C=C1C(=O)O[C@H]2[C@H]1CC/C(C)=C/CC[C@@]1(C)O[C@@H]21 [Parthenolide] | potentially active | 2.19 ± 1.34 | 3.07 ± 1 | 1.97 ± 0.59 | 0.72 ± 0.23 | 2.86 ± 1.55 | 1.54 ± 0.36 | 1.13 ± 0.31 | ↓VEGF expression & metastasis [61, 124, 125]; ↑p53 activation [48]; ↓cyclin D1 [61, 122] | ↓NF-κB & AP-1 activation [48, 61, 124, 126, 127]; ↓MAPK/ERK signaling [126, 127]; ↓STAT signaling [128]; ↑ROS[48, 65, 128] | comparable to the adenylate cyclase stimulator forskolin positive control | Poor | Poor

Reference: PMC5085131, “Cyclic AMP efflux inhibitors as potential therapeutic agents for leukemia” (Oncotarget, 2016)
